Like-named read-outs stand apart in the source and are kept apart here. Positions of bridges follow the written chain, without caps; N, C: chain ends. Non-standard residues stand in square brackets, D forms with d. Residues, ends and D or L forms follow the SMILES beside them. *: point of attachment. DOTA = O=C(O)CN1CCN(CC(=O)O)CCN(CC(=O)*)CCN(CC(=O)O)CC1; X1 = O=C(Cn1cc(COCC(CO)(CO)CI)nn1)*; Nle = CCCC[C@H](N)C(=O)O
Tests used:
[1] = target: T1, MC1R (B16F10 melanoma cells) (Mus musculus, UniProt Q01727); test: Receptor binding assay: competitive inhibition of [^125I]I-Tyr^2-NDP-MSH bound to B16F10 melanoma cells; conditions: competition with [^125I]I-Tyr^2-NDP-MSH, 37 °C, 1 h, brackets = 95% confidence interval
T1 construct: endogenous in cells; host or cells: B16F10 melanoma cells (Cell Resource Center for Biomedical Research, Tohoku University)
T1 sequence (Q01727 whole entry): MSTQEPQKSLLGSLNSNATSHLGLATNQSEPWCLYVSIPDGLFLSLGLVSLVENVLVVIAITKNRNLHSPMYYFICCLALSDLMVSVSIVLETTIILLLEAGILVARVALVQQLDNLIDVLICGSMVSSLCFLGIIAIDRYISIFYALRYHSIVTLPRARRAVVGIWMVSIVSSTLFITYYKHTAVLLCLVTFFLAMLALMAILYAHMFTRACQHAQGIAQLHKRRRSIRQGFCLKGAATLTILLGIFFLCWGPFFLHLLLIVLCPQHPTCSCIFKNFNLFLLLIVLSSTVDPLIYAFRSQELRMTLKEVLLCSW
Experimental: B16F10 cells were obtained from the Cell Resource Center for Biomedical Research (Institute of Development, Aging and Cancer Tohoku University). B16F10 cells were cultivated in RPMI 1640 medium (Nacalai Tesque) supplemented with 10% fetal bovine serum (Thermo Scientific) in a humidified atmosphere containing 5% carbon dioxide at 37 °C. B16F10 cells (5 × 10^5 cells/well) were seeded in a 24-well poly-D-lysine coated plate (Corning) overnight. After the growth medium was removed, a reaction buffer containing 4.8 mg/mL HEPES, 100 U/mL penicillin, 1 mg/mL streptomycin and 2 mg/mL bovine serum albumin was added. Approximately 30,000 counts per minute of [^125I]I-Tyr^2-NDP-MSH and 0.5 pM to 5 µM of the peptides (NpG-GGN1a–NpG-GGN4a and In-DOTA-GGNle-CycMSHhex) were added to each well. The reaction mixture was incubated at 37 °C for 1 h. After incubation, the binding medium was removed, and the cells were rinsed twice with ice-cold phosphate-buffered saline (PBS). The cells were harvested using 0.25% trypsin solution, and the radioactivity was determined using an auto-well gamma counter. Ki values were calculated using GraphPad Prism 8.4.3 (GraphPad Software).

[2] = Log D7.4 measurements (1-octanol / phosphate buffer); format: physicochemical; conditions: 1-octanol / 25 mM phosphate buffer pH 7.4; mean ± SD
Experimental: This experiment was performed according to a previously reported procedure with slight modifications. In brief, an aliquot of radiolabeled GGNle-CycMSHhex analogs (50 kBq/5 µL) was mixed with equal amounts (1.5 mL) of 1-octanol and 25 mM phosphate buffer (pH 7.4). The mixture was vortexed for 1 min and then allowed to stand for 1 min. After repeating the procedure five times, the mixture was centrifuged at 1,500 g for 10 min. Aliquots of 0.5 mL were taken from each phase and their radioactivity was measured with an auto-well γ counter (Wizard 3, PerkinElmer). The partition coefficient was determined by calculating the ratio of counts per minute in the 1-octanol phase to that in the buffer phase and expressed as a common logarithm. The results represent the mean ± SD for each compound.

[3] = Biodistribution in tumor-bearing mice; format: in vivo; conditions: C57BL/6, mouse, iv, total radioactivity, 3 h after i.v. injection, Suppl. Table 1, mean ± SD, n = 4; for tissue uptake dose at 3 h: 7.4 kBq
Experimental: The animal experiments were conducted according to a protocol reviewed and approved by the Chiba University Animal Care Committee (Permit No. 4–183). Five-week-old C57BL/6 mice were subcutaneously xenografted in their right hind legs by injecting B16F10 cells (1.0 × 10^6 cells) suspended in Matrigel (BD Biosciences). When the tumor diameter achieved approximately 10 mm, the mice were subjected to biodistribution studies. Groups of four mice were sacrificed at each postinjection time point. A solution of each radiohalogenated GGNle-CycMSHhex analog or [^111In]In-DOTA-GGNle-CycMSHhex (7.4 kBq/100 µL) was injected into the tumor-bearing mice via the tail vein, and the mice were sacrificed at 3 h postinjection. A solution of [^125I]NpG-GGN4b (7.4 kBq) or [^211At]NpG-GGN4c (40 or 100 kBq) was also injected, and the mice were sacrificed at […] postinjection. Injected radioactivity of [^211At]NpG-GGN4c was 40 kBq for 1 and 3 h postinjection groups and 100 kBq for 24 postinjection group. Blocking studies were performed by co-injection of NDP-MSH (10 µg per mouse) simultaneously with [^125I]NpG-GGN4b (7.4 kBq) or [^211At]NpG-GGN4c (40 kBq), and the mice were sacrificed at 3 h postinjection. The organs of interest were removed, weighed, and radioactivity was estimated using an auto-well gamma counter.

For `CCCC[C@H](NC(=O)CNC(=O)CNC(=O)Cn1cc(COCC(CO)(CO)CI)nn1)C(=O)N[C@H]1CC(=O)NCCCC[C@@H](C(N)=O)NC(=O)[C@H](Cc2c[nH]c3ccccc23)NC(=O)[C@H](CCCNC(=N)N)NC(=O)[C@@H](Cc2ccccc2)NC(=O)[C@H](Cc2c[nH]cn2)NC1=O` [NpG-GGN1a] (X1-GG[Nle]DH[dF]RWK-NH2; lactam 4-9), the Ki [1] was 2.81 nM.
Compound `CCCC[C@H](NC(=O)CNC(=O)CNC(=O)[C@@H](CCCNC(=N)N)NC(=O)[C@@H](CCC(=O)O)NC(=O)Cn1cc(COCC(CO)(CO)CI)nn1)C(=O)N[C@H]1CC(=O)NCCCC[C@@H](C(N)=O)NC(=O)[C@H](Cc2c[nH]c3ccccc23)NC(=O)[C@H](CCCNC(=N)N)NC(=O)[C@@H](Cc2ccccc2)NC(=O)[C@H](Cc2c[nH]cn2)NC1=O` [NpG-GGN4a] (X1-[dE][dR]GG[Nle]DH[dF]RWK-NH2; lactam 6-11) has a Ki [1] of 1.37 nM.
Compound `CCCC[C@H](NC(=O)CNC(=O)CNC(=O)[C@@H](CCC(=O)O)NC(=O)[C@@H](CCC(=O)O)NC(=O)Cn1cc(COCC(CO)(CO)CI)nn1)C(=O)N[C@H]1CC(=O)NCCCC[C@@H](C(N)=O)NC(=O)[C@H](Cc2c[nH]c3ccccc23)NC(=O)[C@H](CCCNC(=N)N)NC(=O)[C@@H](Cc2ccccc2)NC(=O)[C@H](Cc2c[nH]cn2)NC1=O` [NpG-GGN3a] (X1-[dE][dE]GG[Nle]DH[dF]RWK-NH2; lactam 6-11) has a Ki [1] of 14.9 nM.
With `CCCC[C@H](NC(=O)CNC(=O)CNC(=O)[C@@H](CCC(=O)O)NC(=O)Cn1cc(COCC(CO)(CO)CI)nn1)C(=O)N[C@H]1CC(=O)NCCCC[C@@H](C(N)=O)NC(=O)[C@H](Cc2c[nH]c3ccccc23)NC(=O)[C@H](CCCNC(=N)N)NC(=O)[C@@H](Cc2ccccc2)NC(=O)[C@H](Cc2c[nH]cn2)NC1=O` [NpG-GGN2a] (X1-[dE]GG[Nle]DH[dF]RWK-NH2; lactam 5-10) the Ki [1] was 3.24 nM.
Work on `CCCC[C@H](NC(=O)CNC(=O)CNC(=O)CN1CCN(CC(=O)O)CCN(CC(=O)O)CCN(CC(=O)O)CC1)C(=O)N[C@H]1CC(=O)NCCCC[C@@H](C(N)=O)NC(=O)[C@H](Cc2c[nH]c3ccccc23)NC(=O)[C@H](CCCNC(=N)N)NC(=O)[C@@H](Cc2ccccc2)NC(=O)[C@H](Cc2c[nH]cn2)NC1=O` [[^111In]In-DOTA-GGNle-CycMSHhex, metal not drawn] ({DOTA}-GG[Nle]DH[dF]RWK-NH2; lactam 4-9) yielded a logD [2] of -3.45 ± 0.17, a tissue uptake dose at 3 h ([3]; intestine, read-out: Biodistribution of radioactivity, Intestine) of 0.6 ± 0.15 %ID and a tissue uptake dose at 3 h ([3]; stomach, read-out: Biodistribution of radioactivity, Stomach) of 0.2 ± 0.04 %ID. For the same compound, the tissue uptake dose at 3 h ([3]; thyroid, read-out: Biodistribution of radioactivity, Thyroid) was 0.01 %ID and the tissue uptake at 3 h ([3]; tumor, 7.4 kBq/100 µL) was 16.5 ± 1.89 %ID/g.

— article PMC12014842, “An ^211At-labeled alpha-melanocyte stimulating hormone peptide analog for targeted alpha therapy of metastatic melanoma” (European Journal of Nuclear Medicine and Molecular Imaging, 2025)
